Measured values published in PubChem BioAssay (NCI).
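Method: 48-hour compound exposure of cells in 96-well plates, five concentrations, linear interpolation of endpoints. Here, GI50 denotes the concentration required for 50% inhibition of growth. The concentration for full growth arrest is given as TGI.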

Assays:
Test in all cases: inhibition of tumour cell growth, NCI panel, 48 h
A549 NSCLC = system: A549 NSCLC
COLO 205 colon = system: COLO 205 colon
HCT-116 colon = system: HCT-116 colon
HCT-15 colon = system: HCT-15 colon
HOP-62 NSCLC = system: HOP-62 NSCLC
KM12 colon = system: KM12 colon
SF-295 CNS = system: SF-295 CNS
SN12C renal = system: SN12C renal
UACC-62 melanoma = system: UACC-62 melanoma
M14 melanoma = system: M14 melanoma

Structure (SMILES) | TGI (A549 NSCLC) | TGI (COLO 205 colon) | TGI (HCT-116 colon) | TGI (HCT-15 colon) | TGI (HOP-62 NSCLC) | TGI (KM12 colon) | TGI (SF-295 CNS) | TGI (SN12C renal) | TGI (UACC-62 melanoma) | GI50 (COLO 205 colon) | GI50 (HCT-116 colon) | GI50 (HCT-15 colon) | GI50 (HOP-62 NSCLC) | GI50 (KM12 colon) | GI50 (M14 melanoma) | TGI (M14 melanoma) | GI50 (SF-295 CNS) | GI50 (SN12C renal) | GI50 (UACC-62 melanoma) | GI50 (A549 NSCLC)
Nc1ccc2c(c1)C1=NNC(=O)CC1C2 (stereo not given) | > 100 µM | > 100 µM | > 100 µM | > 100 µM | > 100 µM | > 100 µM | > 100 µM | > 100 µM | > 100 µM | – | – | – | – | – | – | – | – | – | – | –
COc1cc(-c2n/c(=C\c3c(O)[nH]c4ccc(Cl)cc34)cc3c2=Nc2ccccc2-3)cc(OC)c1OC | – | 3.81 µM | 0.595 µM | 8.44 µM | 0.783 µM | 5.61 µM | 10.2 µM | 2.36 µM | 3.42 µM | 1.35 µM | 0.232 µM | 1.56 µM | 0.383 µM | 1.72 µM | 1.43 µM | 3.02 µM | 3.31 µM | 0.754 µM | 1.8 µM | –
CN1CCN(c2ccc(-c3ccc4ncc(C#N)c(Nc5ccc(F)c(Cl)c5)c4c3)cc2)CC1 | 26.6 µM | 4.99 µM | – | 3.62 µM | 7.55 µM | 18.4 µM | 3.61 µM | 19.6 µM | 3.75 µM | 1.92 µM | – | 1.05 µM | 2.22 µM | 4.47 µM | – | – | 1.82 µM | 3.04 µM | 1.87 µM | 2.63 µM
[N-]=[N+]=Nc1ccc(NCCCCCC(=O)ON2C(=O)CCC2=O)c([N+](=O)[O-])c1 | > 100 µM | > 100 µM | > 100 µM | > 100 µM | > 100 µM | > 100 µM | > 100 µM | > 100 µM | > 100 µM | – | – | – | – | – | – | > 100 µM | – | – | – | –
C=C(C)[C@@H]1CC[C@]2(C)CC[C@]3(C)[C@H](CC[C@@H]4[C@@]5(C)CC[C@H](OC(=O)c6ccccc6)C(C)(C)[C@@H]5CC[C@]43C)[C@@H]12 | > 100 µM | > 100 µM | > 100 µM | > 100 µM | > 100 µM | > 100 µM | > 100 µM | > 100 µM | > 100 µM | – | – | – | – | – | – | > 100 µM | – | – | – | –
O=C(N/C(=C\c1ccccc1[N+](=O)[O-])c1nc2ccccc2[nH]1)c1ccccc1 | – | > 100 µM | – | > 100 µM | – | > 100 µM | > 100 µM | > 100 µM | > 100 µM | – | – | – | – | – | – | > 100 µM | – | – | – | –
COc1ccc(NS(=O)c2ccc(-c3ccccc3)cc2)cc1 (stereo not given) | > 100 µM | > 100 µM | > 100 µM | > 100 µM | > 100 µM | > 100 µM | > 100 µM | > 100 µM | – | – | – | – | – | – | – | > 100 µM | – | – | – | –
Cc1nc(Cl)c(Cl)c(Cl)n1 | 3.25 µM | 1.42 µM | 0.24 µM | 1.96 µM | 0.974 µM | 1 µM | 3.58 µM | 1.26 µM | 1.46 µM | – | – | – | – | – | – | 0.48 µM | – | – | – | –
O=c1[nH][nH]c(=O)[nH]1 | > 100 µM | > 100 µM | > 100 µM | > 100 µM | > 100 µM | > 100 µM | > 100 µM | – | > 100 µM | – | – | – | – | – | – | > 100 µM | – | – | – | –
CC1SC(c2ccccc2)N(Nc2c3ccccc3nc3ccccc23)C1=O (stereo not given) | > 100 µM | > 100 µM | > 100 µM | > 100 µM | > 100 µM | > 100 µM | > 100 µM | > 100 µM | > 100 µM | – | – | – | – | – | – | > 100 µM | – | – | – | –
CNC(C)Cc1ccccc1O (stereo not given) | > 100 µM | > 100 µM | > 100 µM | > 100 µM | > 100 µM | > 100 µM | > 100 µM | > 100 µM | > 100 µM | – | – | – | – | – | – | > 100 µM | – | – | – | –
CO[C@H]1[C@@H](O)[C@@H](C)O[C@@H](O[C@H]2CC[C@@]3(C)[C@H](CC[C@@H]4[C@@H]3CC[C@]3(C)[C@@H](C5=CC(=O)OC5)CC[C@]43O)C2)[C@@H]1O | 0.00487 µM | 0.221 µM | 0.0275 µM | 0.0419 µM | 0.00943 µM | 0.191 µM | 0.157 µM | – | 0.0228 µM | – | – | – | – | – | – | 0.0479 µM | – | – | – | –
CCn1nc(C)c2c1C(=O)NC(C)C(=O)N2 (stereo not given) | > 100 µM | > 100 µM | > 100 µM | 28.3 µM | – | – | > 100 µM | > 100 µM | > 100 µM | – | – | – | – | – | – | > 100 µM | – | – | – | –
CN(C)CCNc1ccc2ncnc3c2c1C(=O)c1ccccc1-3 | 1.73 µM | 15.5 µM | 1.71 µM | 13.5 µM | 3.25 µM | 4.55 µM | 2.88 µM | 13.9 µM | 4.92 µM | – | – | – | – | – | – | 1.42 µM | – | – | – | –
